The target of assay [1] is Serine/threonine-protein kinase pim-2 (Homo sapiens) (UniProt Q9P1W9). The experiment in a line: Residual activity of PIM2 at 0.1 uM by microplate scintillation counting.
Assay [2] deals with T1, TGF-beta receptor type-1 (Homo sapiens) (UniProt P36897).
T1 sequence (whole entry): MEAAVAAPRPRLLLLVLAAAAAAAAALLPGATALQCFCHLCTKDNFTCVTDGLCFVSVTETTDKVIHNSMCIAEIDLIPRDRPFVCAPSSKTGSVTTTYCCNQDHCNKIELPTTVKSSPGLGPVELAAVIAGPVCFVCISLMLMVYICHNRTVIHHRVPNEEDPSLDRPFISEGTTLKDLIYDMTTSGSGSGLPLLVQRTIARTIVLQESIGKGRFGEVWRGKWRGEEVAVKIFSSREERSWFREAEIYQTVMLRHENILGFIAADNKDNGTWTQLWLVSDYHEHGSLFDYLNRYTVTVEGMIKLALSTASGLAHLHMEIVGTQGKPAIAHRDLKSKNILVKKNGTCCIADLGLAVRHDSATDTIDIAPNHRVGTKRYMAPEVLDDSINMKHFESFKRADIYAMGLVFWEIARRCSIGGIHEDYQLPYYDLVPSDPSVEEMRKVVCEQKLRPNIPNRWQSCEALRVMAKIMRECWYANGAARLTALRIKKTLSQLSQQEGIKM
The experiment in a line: Residual activity of TGFB-R1 at 1 uM by microplate scintillation counting.

Assay [3] concerns the target Fibroblast growth factor receptor 1 (Homo sapiens) (UniProt P11362). The experiment in a line: Residual activity of wild type FGF-R1 at 10 uM by microplate scintillation counting.
Assay [4] deals with Casein kinase II subunit alpha' (Homo sapiens) (UniProt P19784). The experiment in a line: Residual activity of CK2alpha2 at 10 uM by microplate scintillation counting.
Assay [5] has as its target T2, Lymphokine-activated killer T-cell-originated protein kinase (Homo sapiens) (UniProt Q96KB5).
T2 sequence (whole entry): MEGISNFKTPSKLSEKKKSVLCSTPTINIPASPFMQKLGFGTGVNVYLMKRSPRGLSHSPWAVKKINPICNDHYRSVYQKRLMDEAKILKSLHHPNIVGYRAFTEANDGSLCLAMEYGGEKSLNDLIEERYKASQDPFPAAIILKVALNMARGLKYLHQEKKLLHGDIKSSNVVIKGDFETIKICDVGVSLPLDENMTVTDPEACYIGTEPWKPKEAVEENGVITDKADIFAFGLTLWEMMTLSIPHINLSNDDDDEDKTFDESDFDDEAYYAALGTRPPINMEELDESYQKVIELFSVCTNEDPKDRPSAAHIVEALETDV
The assay can be described thus: Residual activity of PBK at 10 uM by microplate scintillation counting.

Assay [6] addresses Fibroblast growth factor receptor 4 (Homo sapiens) (UniProt P22455). The experiment in a line: Residual activity of FGFR4 at 1 uM by microplate scintillation counting.
The target in assay [7] is Tyrosine-protein kinase ABL2 (Homo sapiens) (UniProt P42684). The assay can be described thus: Residual activity of ABL2 at 1 uM by microplate scintillation counting.
Assay [8] has as its target T3, Serine/threonine-protein kinase 3 (Homo sapiens) (UniProt Q13188).
T3 sequence (whole entry): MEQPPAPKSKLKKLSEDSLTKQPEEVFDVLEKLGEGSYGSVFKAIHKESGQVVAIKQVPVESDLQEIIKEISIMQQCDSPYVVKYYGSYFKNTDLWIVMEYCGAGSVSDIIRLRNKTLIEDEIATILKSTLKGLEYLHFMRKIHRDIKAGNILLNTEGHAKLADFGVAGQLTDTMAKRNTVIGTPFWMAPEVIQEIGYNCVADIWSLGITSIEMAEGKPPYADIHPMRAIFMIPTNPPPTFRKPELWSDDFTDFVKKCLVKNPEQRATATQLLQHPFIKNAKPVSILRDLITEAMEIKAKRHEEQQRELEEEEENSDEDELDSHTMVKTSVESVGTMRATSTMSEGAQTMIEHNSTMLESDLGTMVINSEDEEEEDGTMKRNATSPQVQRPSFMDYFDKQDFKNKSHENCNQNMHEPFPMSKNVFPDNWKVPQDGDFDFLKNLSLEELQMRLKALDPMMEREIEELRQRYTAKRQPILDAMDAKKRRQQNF
The experiment in a line: Residual activity of MST2 at 1 uM by microplate scintillation counting.

Assay [9] has as its target Serine/threonine-protein kinase SIK2 (Homo sapiens) (UniProt Q9H0K1). The experiment in a line: Residual activity of SNF1LK2 at 1 uM by microplate scintillation counting.
For assay [10], the target named is T4, Serine/threonine-protein kinase Nek2 (Homo sapiens) (UniProt P51955).
T4 sequence (whole entry): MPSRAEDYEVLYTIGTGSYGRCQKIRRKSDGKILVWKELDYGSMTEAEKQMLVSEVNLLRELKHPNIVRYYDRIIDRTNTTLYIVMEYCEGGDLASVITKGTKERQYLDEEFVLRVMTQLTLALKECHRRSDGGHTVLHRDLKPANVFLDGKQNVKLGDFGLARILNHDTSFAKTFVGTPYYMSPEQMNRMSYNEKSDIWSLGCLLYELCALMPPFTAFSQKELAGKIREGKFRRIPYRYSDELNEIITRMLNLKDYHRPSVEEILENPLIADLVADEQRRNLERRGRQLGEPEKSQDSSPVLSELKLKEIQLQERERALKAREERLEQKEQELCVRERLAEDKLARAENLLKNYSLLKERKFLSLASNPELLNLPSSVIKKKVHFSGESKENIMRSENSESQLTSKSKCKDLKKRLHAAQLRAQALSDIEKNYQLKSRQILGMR
The assay can be described thus: Residual activity of NEK2 at 0.1 uM by microplate scintillation counting.

Assay [11] concerns the target T5, Serine/threonine-protein kinase Nek11 (Homo sapiens) (UniProt Q8NG66).
T5 sequence (whole entry): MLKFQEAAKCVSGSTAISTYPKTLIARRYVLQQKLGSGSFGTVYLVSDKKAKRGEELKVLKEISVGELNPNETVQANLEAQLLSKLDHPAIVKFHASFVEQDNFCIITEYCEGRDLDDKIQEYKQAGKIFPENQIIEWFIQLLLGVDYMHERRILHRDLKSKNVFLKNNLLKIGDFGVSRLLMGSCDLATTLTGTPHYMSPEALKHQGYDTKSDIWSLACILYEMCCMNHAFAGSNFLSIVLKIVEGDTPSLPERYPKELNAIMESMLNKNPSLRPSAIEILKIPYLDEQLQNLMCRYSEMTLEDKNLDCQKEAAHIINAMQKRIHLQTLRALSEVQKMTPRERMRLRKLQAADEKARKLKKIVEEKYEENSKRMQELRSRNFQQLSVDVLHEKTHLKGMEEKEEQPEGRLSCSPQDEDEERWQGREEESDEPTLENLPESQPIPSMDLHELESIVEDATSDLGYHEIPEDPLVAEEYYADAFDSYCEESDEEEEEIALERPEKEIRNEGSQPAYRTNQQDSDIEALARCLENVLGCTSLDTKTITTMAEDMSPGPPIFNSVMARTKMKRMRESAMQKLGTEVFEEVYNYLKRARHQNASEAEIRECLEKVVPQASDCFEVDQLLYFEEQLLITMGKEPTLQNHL
The experiment in a line: Residual activity of NEK11 at 0.1 uM by microplate scintillation counting.

Tyrosine-protein kinase ABL2 (Homo sapiens), sequence (P42684 whole entry): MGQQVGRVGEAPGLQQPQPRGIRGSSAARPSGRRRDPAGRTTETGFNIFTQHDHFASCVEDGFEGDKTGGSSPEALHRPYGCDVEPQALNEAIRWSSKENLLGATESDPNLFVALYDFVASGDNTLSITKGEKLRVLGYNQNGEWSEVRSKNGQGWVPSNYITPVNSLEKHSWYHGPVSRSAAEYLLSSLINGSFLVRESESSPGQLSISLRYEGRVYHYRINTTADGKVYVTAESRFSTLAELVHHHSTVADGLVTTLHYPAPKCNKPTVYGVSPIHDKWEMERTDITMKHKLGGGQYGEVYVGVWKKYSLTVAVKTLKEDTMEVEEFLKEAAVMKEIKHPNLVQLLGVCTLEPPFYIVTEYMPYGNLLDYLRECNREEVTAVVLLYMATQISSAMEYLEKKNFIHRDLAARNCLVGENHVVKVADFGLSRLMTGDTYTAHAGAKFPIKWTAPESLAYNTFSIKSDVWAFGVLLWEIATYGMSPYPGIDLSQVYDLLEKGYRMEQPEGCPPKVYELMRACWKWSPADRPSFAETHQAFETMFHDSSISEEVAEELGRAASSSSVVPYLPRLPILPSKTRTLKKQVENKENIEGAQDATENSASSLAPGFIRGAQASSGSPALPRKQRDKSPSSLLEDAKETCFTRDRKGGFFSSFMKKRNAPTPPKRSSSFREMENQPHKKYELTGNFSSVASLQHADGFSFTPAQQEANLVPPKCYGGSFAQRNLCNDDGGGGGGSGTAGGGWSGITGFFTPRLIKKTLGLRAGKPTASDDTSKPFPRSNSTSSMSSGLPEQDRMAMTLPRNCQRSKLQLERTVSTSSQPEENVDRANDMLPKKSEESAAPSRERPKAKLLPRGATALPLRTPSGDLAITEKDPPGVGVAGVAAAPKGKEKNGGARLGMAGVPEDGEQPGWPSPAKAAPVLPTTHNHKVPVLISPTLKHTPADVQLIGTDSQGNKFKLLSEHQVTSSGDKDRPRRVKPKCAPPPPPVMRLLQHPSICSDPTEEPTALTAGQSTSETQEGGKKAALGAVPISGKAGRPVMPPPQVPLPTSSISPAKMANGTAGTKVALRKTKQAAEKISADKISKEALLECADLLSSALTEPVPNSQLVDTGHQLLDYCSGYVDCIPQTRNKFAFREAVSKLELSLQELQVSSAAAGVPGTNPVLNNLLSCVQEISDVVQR
Serine/threonine-protein kinase SIK2 (Homo sapiens), sequence (Q9H0K1 whole entry, looked up): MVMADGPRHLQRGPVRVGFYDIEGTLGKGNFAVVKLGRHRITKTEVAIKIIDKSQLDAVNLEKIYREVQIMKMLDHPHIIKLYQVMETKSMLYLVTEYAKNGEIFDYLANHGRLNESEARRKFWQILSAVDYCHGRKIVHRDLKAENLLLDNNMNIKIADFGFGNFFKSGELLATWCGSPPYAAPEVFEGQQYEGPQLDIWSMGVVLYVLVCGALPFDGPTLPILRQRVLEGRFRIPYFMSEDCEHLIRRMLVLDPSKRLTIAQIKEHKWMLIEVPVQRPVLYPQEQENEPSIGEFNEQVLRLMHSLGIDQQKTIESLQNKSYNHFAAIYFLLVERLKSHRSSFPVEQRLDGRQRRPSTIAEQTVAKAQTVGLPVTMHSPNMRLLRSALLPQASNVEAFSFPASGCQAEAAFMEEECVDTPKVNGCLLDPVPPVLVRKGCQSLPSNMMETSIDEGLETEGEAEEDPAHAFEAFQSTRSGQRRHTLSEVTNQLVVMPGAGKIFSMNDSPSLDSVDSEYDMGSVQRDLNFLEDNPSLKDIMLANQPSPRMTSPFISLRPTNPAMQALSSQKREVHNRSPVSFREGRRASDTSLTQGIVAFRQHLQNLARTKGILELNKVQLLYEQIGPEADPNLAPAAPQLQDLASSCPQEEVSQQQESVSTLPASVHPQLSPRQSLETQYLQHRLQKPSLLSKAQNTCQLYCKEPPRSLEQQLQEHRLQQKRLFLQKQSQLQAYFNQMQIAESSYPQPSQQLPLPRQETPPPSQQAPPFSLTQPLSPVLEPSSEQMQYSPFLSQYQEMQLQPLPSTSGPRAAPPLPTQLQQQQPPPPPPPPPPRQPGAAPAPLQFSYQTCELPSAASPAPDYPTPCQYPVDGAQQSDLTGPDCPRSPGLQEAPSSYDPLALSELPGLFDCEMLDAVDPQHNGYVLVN
Casein kinase II subunit alpha' (Homo sapiens), sequence (P19784 whole entry, looked up): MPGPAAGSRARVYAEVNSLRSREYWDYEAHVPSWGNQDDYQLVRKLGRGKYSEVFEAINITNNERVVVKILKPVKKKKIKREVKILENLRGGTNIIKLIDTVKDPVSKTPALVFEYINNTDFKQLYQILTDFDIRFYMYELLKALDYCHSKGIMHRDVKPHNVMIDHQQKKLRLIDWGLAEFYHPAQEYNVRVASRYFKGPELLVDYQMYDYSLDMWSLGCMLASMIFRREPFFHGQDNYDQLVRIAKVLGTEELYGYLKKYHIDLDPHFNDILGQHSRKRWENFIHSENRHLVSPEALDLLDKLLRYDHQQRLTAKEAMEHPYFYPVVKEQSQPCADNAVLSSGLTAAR
Serine/threonine-protein kinase pim-2 (Homo sapiens), sequence (Q9P1W9 whole entry, looked up): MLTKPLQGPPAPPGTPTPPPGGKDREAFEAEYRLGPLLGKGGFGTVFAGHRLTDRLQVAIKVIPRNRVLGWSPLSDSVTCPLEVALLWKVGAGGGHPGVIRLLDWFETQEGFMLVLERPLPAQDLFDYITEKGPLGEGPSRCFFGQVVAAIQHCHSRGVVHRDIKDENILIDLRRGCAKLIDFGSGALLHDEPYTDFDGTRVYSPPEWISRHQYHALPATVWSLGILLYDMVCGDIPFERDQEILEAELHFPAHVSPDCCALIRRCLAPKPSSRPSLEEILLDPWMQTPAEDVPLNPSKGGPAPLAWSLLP
Fibroblast growth factor receptor 4 (Homo sapiens), sequence (P22455 22-802 limits assumed): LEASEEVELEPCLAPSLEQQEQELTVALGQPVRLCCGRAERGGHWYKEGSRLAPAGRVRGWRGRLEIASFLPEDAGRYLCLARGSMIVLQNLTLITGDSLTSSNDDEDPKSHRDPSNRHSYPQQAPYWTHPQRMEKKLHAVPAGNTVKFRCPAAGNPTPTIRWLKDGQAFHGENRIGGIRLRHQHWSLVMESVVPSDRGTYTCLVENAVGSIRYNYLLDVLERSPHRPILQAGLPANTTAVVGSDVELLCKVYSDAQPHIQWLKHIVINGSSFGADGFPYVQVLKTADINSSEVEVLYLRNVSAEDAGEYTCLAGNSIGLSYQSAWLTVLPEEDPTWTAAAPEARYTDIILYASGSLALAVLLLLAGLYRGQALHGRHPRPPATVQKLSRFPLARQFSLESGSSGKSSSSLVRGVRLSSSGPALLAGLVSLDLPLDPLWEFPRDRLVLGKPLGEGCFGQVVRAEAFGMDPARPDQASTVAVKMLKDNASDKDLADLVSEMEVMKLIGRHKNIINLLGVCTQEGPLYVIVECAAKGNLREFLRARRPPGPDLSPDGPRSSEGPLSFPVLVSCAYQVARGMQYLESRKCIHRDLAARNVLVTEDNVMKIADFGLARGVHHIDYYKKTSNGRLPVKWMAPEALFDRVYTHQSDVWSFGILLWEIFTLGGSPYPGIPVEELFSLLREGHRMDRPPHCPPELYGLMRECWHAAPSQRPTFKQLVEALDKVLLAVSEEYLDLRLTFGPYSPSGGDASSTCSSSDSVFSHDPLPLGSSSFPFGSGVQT
Fibroblast growth factor receptor 1 (Homo sapiens), sequence (P11362 22-822 limits assumed): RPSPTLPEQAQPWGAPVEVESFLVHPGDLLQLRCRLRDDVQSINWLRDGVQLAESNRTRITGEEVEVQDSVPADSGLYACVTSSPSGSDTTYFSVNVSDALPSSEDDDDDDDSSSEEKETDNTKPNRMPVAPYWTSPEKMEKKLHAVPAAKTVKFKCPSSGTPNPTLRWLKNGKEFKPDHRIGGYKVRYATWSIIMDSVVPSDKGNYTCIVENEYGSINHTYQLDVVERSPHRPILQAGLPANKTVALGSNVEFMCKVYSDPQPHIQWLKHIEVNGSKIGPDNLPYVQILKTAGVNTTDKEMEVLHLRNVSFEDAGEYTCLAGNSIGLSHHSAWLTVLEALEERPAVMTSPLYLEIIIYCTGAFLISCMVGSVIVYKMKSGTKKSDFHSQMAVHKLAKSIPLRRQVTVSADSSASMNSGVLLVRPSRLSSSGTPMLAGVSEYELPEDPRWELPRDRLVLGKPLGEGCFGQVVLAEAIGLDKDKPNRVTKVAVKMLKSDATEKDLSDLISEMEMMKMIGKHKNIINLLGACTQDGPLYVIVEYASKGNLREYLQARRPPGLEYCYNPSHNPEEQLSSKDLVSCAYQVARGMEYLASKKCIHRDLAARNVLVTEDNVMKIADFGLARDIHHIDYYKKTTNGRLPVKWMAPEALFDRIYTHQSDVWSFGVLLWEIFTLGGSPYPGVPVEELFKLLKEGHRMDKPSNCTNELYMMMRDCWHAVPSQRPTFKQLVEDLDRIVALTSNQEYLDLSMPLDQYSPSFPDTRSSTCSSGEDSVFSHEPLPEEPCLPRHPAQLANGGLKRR

As to `COc1cc2c(Oc3ccc(-c4nc5ccccc5s4)cc3)ncnc2cc1OCCCN1CCN(C)CC1`, the residual activity in [1] was found to be 64%; in assay [2], 103%; in [3], 157%; in assay [4] it was 98%; in assay [5], 102%; in assay [6] it was 121%. Besides, the residual activity in assay [7] came to 99%; in assay [8] it was 67%; in [9], 88%; in assay [10], 95%; in assay [11] it was 95%.

Consider `COc1cc2c(Oc3ccc(-c4nc5ccccc5s4)cc3)ncnc2cc1OCCCN1CCCC1`, for which the residual activity came out at 104% in [1]; 98% in assay [2]; 124% in assay [3]; 97% in assay [4]; 85% in assay [5]; 137% in assay [6]. Besides, the residual activity in assay [7] is 98%; in assay [8] it was 66%; in assay [9] it was 78%; in [10], 94%; in [11] it was 103%.

For `COc1cc2c(Oc3ccc(-c4nc5ccccc5s4)cc3F)ncnc2cc1OCCCN1CCN(C)CC1`, the residual activity came to 94% in assay [1]; 107% in assay [2]; 47% in assay [3]; 116% in assay [4]; 65% in assay [5]; 130% in assay [6]. For the same compound, the residual activity in assay [7] was found to be 87%; in assay [8], 86%; in assay [9] it was 85%; in assay [10] it was 90%; in assay [11], 94%.
